Data from ChEMBL document CHEMBL5036301, “Heteroaryl ether analogues of an antileishmanial 7-substituted 2-nitroimidazooxazine lead afford attenuated hERG risk: In vitro and in vivo appraisal” (Eur J Med Chem, 2021).
≈ marks a conversion by molar mass, not a printed value.

Columns and labels:
[1] = Selectivity index, ratio IC50 for cytotoxicity against human MRC5 cells to IC50 for antileishmanial activity against Leishmania infantum MHOM/MA(BE)/67 amastigotes infected in macrophages
[2] = Kinetic solubility of compound in water at pH7 by HPLC analysis; conditions: pH 7
[3] = Stability of compound in hamster liver microsomes assessed as percentage of parent compound remaining at 1 uM measured after 1 hr; conditions: chinese hamster
Leishmania infantum = assay: Antileishmanial activity against Leishmania infantum MHOM/MA(BE)/67 amastigotes infected in macrophages assessed as reduction in parasite burden by giemsa staining based microscopic analysis; assay type: functional, organism-based
[4] = Stability of compound in human liver microsomes assessed as percentage of parent compound remaining at 1 uM measured after 1 hr
Leishmania donovani [5] = assay: Antileishmanial activity against Leishmania donovani amastigotes infected in BALB/C mouse assessed as reduction in parasite burden in liver tissue at 50 mg/kg, po administered once per day for 5 days relative to control; assay type: functional; conditions: 120 h, time 5 day
Trypanosoma cruzi = assay: Antitrypanosomal activity against Trypanosoma cruzi Tulahuen CL2 infected in human MRC-5 cells assessed as parasite growth; assay type: functional, organism-based; conditions: Tulahuen CL2, MRC5
MRC5 = assay: Cytotoxicity against human MRC5 cells assessed as cell viability after 72 hrs by fluorimetric analysis; assay type: ADME, cell-based; conditions: MRC5, 72 h
[6] = Stability of compound in CD-1 mouse liver microsomes assessed as percentage of parent compound remaining at 1 uM measured after 1 hr
Leishmania donovani [7] = assay: Antileishmanial activity against Leishmania donovani amastigotes infected in mouse J774A.1 cells incubated for 72 hrs by luciferase assay; assay type: functional, organism-based; conditions: J774.A1, 72 h
[8] = system: Mycobacterium tuberculosis; assay: Antitubercular activity against Mycobacterium tuberculosis H37Rv assessed as reduction in microbial growth under anaerobic condition by luminescence analysis; assay type: functional
hERG (KCNH2) = hERG (KCNH2) (Homo sapiens, UniProt Q12809); assay: Inhibition of human ERG expressed in HEK293 cells at 10 uM relative to control; assay type: cell-based; conditions: HEK293 cells expressing human ERG
[9] = Kinetic solubility of compound in 0.1 M Hcl at pH1 by HPLC analysis; assay type: physicochemical; conditions: pH 1, read-out: Kinetic_solubility
[10] = system: Mycobacterium tuberculosis; assay: Antitubercular activity against Mycobacterium tuberculosis H37Rv assessed as reduction in microbial growth under aerobic condition by luminescence analysis; assay type: functional
in vivo [11] = conditions: mouse, po, 25 mg/kg
[12] = Initial plasma concentration in mouse at 1 mg/kg, iv measured upto 24 hrs LC-MS/MS analysis
[13] = Half life in mouse at 1 mg/kg, iv measured upto 24 hrs LC-MS/MS analysis; conditions: in vivo
[14] = Volume of distribution at steady state in mouse at 1 mg/kg, iv measured upto 24 hrs LC-MS/MS analysis; conditions: in vivo
in vivo [15] = conditions: mouse, po, 25 mg/kg; remark: listed apart in the source
[16] = AUClast in mouse at 1 mg/kg, iv measured upto 24 hrs LC-MS/MS analysis; conditions: in vivo
in vivo [17] = conditions: mouse, po, 25 mg/kg; remark: listed apart in the source
[18] = AUClast in mouse at 25 mg/kg, po measured upto 24 hrs LC-MS/MS analysis; conditions: in vivo
[19] = Clearance in mouse at 1 mg/kg, iv measured upto 24 hrs LC-MS/MS analysis; conditions: in vivo

hERG (KCNH2), sequence (Q12809 whole entry): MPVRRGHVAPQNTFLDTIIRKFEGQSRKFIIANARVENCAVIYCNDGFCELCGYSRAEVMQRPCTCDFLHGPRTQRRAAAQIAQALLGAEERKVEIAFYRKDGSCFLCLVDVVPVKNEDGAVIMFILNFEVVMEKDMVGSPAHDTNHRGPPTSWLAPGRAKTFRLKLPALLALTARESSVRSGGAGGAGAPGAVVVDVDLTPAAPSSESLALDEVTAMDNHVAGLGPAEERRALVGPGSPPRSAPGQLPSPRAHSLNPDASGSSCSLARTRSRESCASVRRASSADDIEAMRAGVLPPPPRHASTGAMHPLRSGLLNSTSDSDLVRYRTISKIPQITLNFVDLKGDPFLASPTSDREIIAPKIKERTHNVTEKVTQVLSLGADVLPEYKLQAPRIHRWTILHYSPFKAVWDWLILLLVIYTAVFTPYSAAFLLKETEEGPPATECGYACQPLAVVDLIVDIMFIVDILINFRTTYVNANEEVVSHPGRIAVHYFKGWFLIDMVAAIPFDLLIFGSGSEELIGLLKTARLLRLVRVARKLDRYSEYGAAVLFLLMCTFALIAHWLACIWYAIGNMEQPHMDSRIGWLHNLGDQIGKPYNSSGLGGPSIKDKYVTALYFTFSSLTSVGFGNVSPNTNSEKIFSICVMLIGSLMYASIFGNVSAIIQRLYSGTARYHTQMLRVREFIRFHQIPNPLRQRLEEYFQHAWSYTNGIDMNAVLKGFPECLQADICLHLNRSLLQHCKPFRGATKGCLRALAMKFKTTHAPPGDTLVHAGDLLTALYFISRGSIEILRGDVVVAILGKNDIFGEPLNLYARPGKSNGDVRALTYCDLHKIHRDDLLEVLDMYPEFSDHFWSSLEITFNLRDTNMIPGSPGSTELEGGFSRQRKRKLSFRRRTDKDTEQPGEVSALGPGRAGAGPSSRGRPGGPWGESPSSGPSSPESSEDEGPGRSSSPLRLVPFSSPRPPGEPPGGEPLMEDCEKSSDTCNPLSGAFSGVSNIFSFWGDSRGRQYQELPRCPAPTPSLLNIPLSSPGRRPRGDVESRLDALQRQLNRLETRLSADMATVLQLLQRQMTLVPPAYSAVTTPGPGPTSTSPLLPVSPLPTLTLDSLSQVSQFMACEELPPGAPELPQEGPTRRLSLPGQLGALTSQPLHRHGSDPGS

SMILES	selectivity ratio [1]	solubility kinetic [2]	IC50 (Leishmania infantum)	inhibition in vivo at 50 mg/kg (Leishmania donovani [5])	IC50 (Trypanosoma cruzi)	IC50 (MRC5)	IC50 (Leishmania donovani [7])	MIC [8]	MIC [10]	also measured
CC1(COc2ncc(C(F)(F)F)cc2Cl)CCn2cc([N+](=O)[O-])nc2O1 (configuration not stated)	> 246	0.011 mg/mL (≈ 28 µM)	0.26 µM	0%	0.29 µM	> 64 µM				remaining at 1 h, 1 µM [3]: 0%; remaining at 1 h, 1 µM [4]: 23%; remaining at 1 h, 1 µM [6]: 14%
O=[N+]([O-])c1cn2c(n1)OC(COc1ncc(C(F)(F)F)cn1)CC2 (configuration not stated)			> 64 µM		3.3 µM	> 64 µM				
O=[N+]([O-])c1cn2c(n1)OC(COc1cc(C(F)(F)F)ccn1)CC2 (configuration not stated)			> 64 µM		1 µM	> 64 µM				
CC1(COc2ncc(Cl)cn2)CCn2cc([N+](=O)[O-])nc2O1 (configuration not stated)			> 64 µM		3.7 µM	> 64 µM	0.32 µM			
O=[N+]([O-])c1cn2c(n1)OC(COc1ccc(C(F)(F)F)cn1)CC2 (configuration not stated)		0.037 mg/mL (≈ 107 µM)	> 64 µM	46%	1 µM	> 64 µM	0.08 µM	20 µM	2.6 µM	inhibition at 10 µM (hERG (KCNH2)): 4%; solubility kinetic [9]: 0.032 mg/mL (≈ 93 µM)
CC1(COc2ncc(C(F)(F)F)cn2)CCn2cc([N+](=O)[O-])nc2O1 (configuration not stated)		0.0093 mg/mL (≈ 25.9 µM)	> 64 µM	35%	3.1 µM	> 64 µM				remaining at 1 h, 1 µM [3]: 40%; remaining at 1 h, 1 µM [4]: 88%; remaining at 1 h, 1 µM [6]: 86%
CC1(COc2ccc(C(F)(F)F)nc2)CCn2cc([N+](=O)[O-])nc2O1 (configuration not stated)		0.0073 mg/mL (≈ 20.4 µM)	1.9 µM	42%	0.78 µM	> 64 µM	0.09 µM	33 µM	66 µM	Cmax at 24 h (in vivo [11]): 11 µg/mL; C0 at 24 h [12]: 1.6 µg/mL; half-life at 24 h [13]: 1.5 h; inhibition at 10 µM (hERG (KCNH2)): 17%; Vd at 24 h [14]: 0.46 L/kg; Tmax at 24 h (in vivo [15]): 1 h; AUC(0-t) at 24 h [16]: 4 µg·h/mL; bioavailability at 24 h (in vivo [17]): 84%; AUC(0-t) at 24 h [18]: 41.8 µg·h/mL; clearance at 24 h [19]: 0.246 L/h/kg
CC1(COc2ccc(Cl)cc2)CCn2cc([N+](=O)[O-])nc2O1 (configuration not stated)	> 492		0.13 µM		0.18 µM	> 64 µM	0.05 µM	7 µM	0.86 µM	
CC1(COc2cnc(C(F)(F)F)cn2)CCn2cc([N+](=O)[O-])nc2O1 (configuration not stated)	> 29	0.017 mg/mL (≈ 47.3 µM)	2.2 µM	17%	0.94 µM	> 64 µM				remaining at 1 h, 1 µM [3]: 36%; remaining at 1 h, 1 µM [4]: 91%; remaining at 1 h, 1 µM [6]: 90%
O=[N+]([O-])c1cn2c(n1)OC(COc1ccc(Cl)cn1)CC2 (configuration not stated)		0.018 mg/mL (≈ 57.9 µM)	> 64 µM		0.94 µM	> 64 µM	0.1 µM			inhibition at 10 µM (hERG (KCNH2)): 17%
C[C@]1(COc2ccc(C(F)(F)F)nc2)CCn2cc([N+](=O)[O-])nc2O1		0.012 mg/mL (≈ 33.5 µM)	1.3 µM	72%	0.9 µM	> 64 µM	0.44 µM			Cmax at 24 h (in vivo [11]): 7.3 µg/mL; C0 at 24 h [12]: 1.1 µg/mL; half-life at 24 h [13]: 1.3 h; Vd at 24 h [14]: 0.91 L/kg; Tmax at 24 h (in vivo [15]): 2 h; AUC(0-t) at 24 h [16]: 2.52 µg·h/mL; bioavailability at 24 h (in vivo [17]): 59%; AUC(0-t) at 24 h [18]: 37.2 µg·h/mL; clearance at 24 h [19]: 0.396 L/h/kg
CC1(COc2ccc(F)cn2)CCn2cc([N+](=O)[O-])nc2O1 (configuration not stated)	> 40		1.6 µM		3.3 µM	> 64 µM	0.26 µM	19 µM	2.3 µM	
CC1(COc2cccc(C(F)(F)F)n2)CCn2cc([N+](=O)[O-])nc2O1 (configuration not stated)	> 110		0.58 µM		0.44 µM	> 64 µM				
CC1(COc2cc(C(F)(F)F)ccn2)CCn2cc([N+](=O)[O-])nc2O1 (configuration not stated)	> 142		0.45 µM		0.86 µM	> 64 µM				
CC1(COc2ncc(F)cn2)CCn2cc([N+](=O)[O-])nc2O1 (configuration not stated)			> 64 µM		14 µM	> 64 µM	0.67 µM			
CC1(COc2ccc(F)cc2)CCn2cc([N+](=O)[O-])nc2O1 (configuration not stated)	> 142		0.45 µM		0.45 µM	> 64 µM	0.29 µM	5 µM	1.3 µM	
CC1(COc2ccc(Oc3ccccc3)cc2)CCn2cc([N+](=O)[O-])nc2O1 (configuration not stated)	> 376		0.17 µM		0.25 µM	> 64 µM	0.17 µM	2.7 µM	0.7 µM	
CC1(COc2ccc(C(F)(F)F)nn2)CCn2cc([N+](=O)[O-])nc2O1 (configuration not stated)		0.01 mg/mL (≈ 27.8 µM)	> 64 µM	0%	3.8 µM	> 64 µM				remaining at 1 h, 1 µM [3]: 58%; remaining at 1 h, 1 µM [4]: 90%; remaining at 1 h, 1 µM [6]: 89%
CC1(COc2ccc(C(F)(F)F)cc2)CCn2cc([N+](=O)[O-])nc2O1 (configuration not stated)	> 400		0.16 µM		0.15 µM	> 64 µM	0.16 µM	4.1 µM	0.8 µM	
O=[N+]([O-])c1cn2c(n1)OC(COc1ccc(OC(F)(F)F)cc1)CC2 (configuration not stated)					0.061 µM		0.04 µM	4.7 µM	5.2 µM	
CC1(COc2ccc(F)nc2)CCn2cc([N+](=O)[O-])nc2O1 (configuration not stated)	> 9		7.1 µM		4.3 µM	> 64 µM	0.6 µM			
O=[N+]([O-])c1cn2c(n1)OC(COc1cccc(C(F)(F)F)n1)CC2 (configuration not stated)			> 64 µM		0.53 µM	> 64 µM				
CC1(COc2ccccc2)CCn2cc([N+](=O)[O-])nc2O1 (configuration not stated)	> 123		0.52 µM		0.59 µM	> 64 µM	0.3 µM	8.1 µM	1.3 µM	
CC1(COc2ncc(C(F)(F)F)cc2F)CCn2cc([N+](=O)[O-])nc2O1 (configuration not stated)	> 136	0.013 mg/mL (≈ 34.6 µM)	0.47 µM	56%	0.73 µM	> 64 µM				remaining at 1 h, 1 µM [3]: 0.4%; remaining at 1 h, 1 µM [4]: 64%; remaining at 1 h, 1 µM [6]: 44%
O=[N+]([O-])c1cn2c(n1)OC(COc1ccc(C(F)(F)F)nc1)CC2 (configuration not stated)		0.029 mg/mL (≈ 84.2 µM)	> 64 µM		1.1 µM	> 64 µM	0.11 µM			Cmax at 24 h (in vivo [11]): 5.8 µg/mL; C0 at 24 h [12]: 2.3 µg/mL; half-life at 24 h [13]: 1.1 h; inhibition at 10 µM (hERG (KCNH2)): 4%; Vd at 24 h [14]: 0.47 L/kg; Tmax at 24 h (in vivo [15]): 0.25 h; AUC(0-t) at 24 h [16]: 3.1 µg·h/mL; bioavailability at 24 h (in vivo [17]): 39%; AUC(0-t) at 24 h [18]: 15.1 µg·h/mL; clearance at 24 h [19]: 0.324 L/h/kg
CC1(COc2ccc(Cl)nc2)CCn2cc([N+](=O)[O-])nc2O1 (configuration not stated)	> 23		2.8 µM		0.93 µM	> 64 µM	0.86 µM			
C[C@@]1(COc2ccc(C(F)(F)F)nc2)CCn2cc([N+](=O)[O-])nc2O1		0.015 mg/mL (≈ 41.9 µM)	2.3 µM	46%	1.8 µM	> 64 µM	0.74 µM	> 128 µM	> 128 µM	Cmax at 24 h (in vivo [11]): 8 µg/mL; C0 at 24 h [12]: 1.9 µg/mL; half-life at 24 h [13]: 1.2 h; Vd at 24 h [14]: 0.75 L/kg; Tmax at 24 h (in vivo [15]): 2 h; AUC(0-t) at 24 h [16]: 2.76 µg·h/mL; bioavailability at 24 h (in vivo [17]): 54%; AUC(0-t) at 24 h [18]: 37.2 µg·h/mL; clearance at 24 h [19]: 0.36 L/h/kg
CC1(COc2ccc(Cl)cn2)CCn2cc([N+](=O)[O-])nc2O1 (configuration not stated)		0.023 mg/mL (≈ 70.8 µM)	0.38 µM	14%	0.63 µM	> 64 µM	0.15 µM	8.7 µM	2 µM	Cmax at 24 h (in vivo [11]): 11 µg/mL; C0 at 24 h [12]: 2.6 µg/mL; half-life at 24 h [13]: 0.65 h; Vd at 24 h [14]: 0.5 L/kg; Tmax at 24 h (in vivo [15]): 1 h; AUC(0-t) at 24 h [16]: 2.01 µg·h/mL; bioavailability at 24 h (in vivo [17]): 100%; AUC(0-t) at 24 h [18]: 57.8 µg·h/mL; clearance at 24 h [19]: 0.498 L/h/kg
